Reference: patent US20260265329A1, “POLYPEPTIDE AND DERIVATIVE THEREOF, COMPOSITION, AND USE THEREOF” (HANGZHOU SCIWIND BIOSCIENCES CO., LTD., priority 2023, published 2026)
Starred links: 1 amine or outer side, 2 acyl side, 3 side chain; linkers in the order of their positions; H or OH if unused. Non-standard residues stand in square brackets, D forms with d. Residues, ends and D or L forms follow the SMILES beside them. *: point of attachment. C20 diacid = O=C(O)CCCCCCCCCCCCCCCCCCC(=O)*; γGlu = O=C(O)[C@H](CCC(=O)[*:2])N[*:1]; Hyp = O=C(O)[C@@H]1C[C@@H](O)CN1

Key:
human amylin receptors = target: T1, human amylin receptors (Homo sapiens, UniProt O60896+P30988); assay: Luciferase assay in stably transfected amylin receptor/CRE-luc CHO cell line; type: cell-based; conditions: for Relative activity: EC50 ratio of Cagrilintide to the compound, Cagrilintide 100%; for EC50: amylin receptor/CRE-luc CHO cells, 24 hours incubation, luminescence
T1 construct: host or cells: CHO-K1/Ga15/AMY3 cells, further stably transfected with a CRE-luciferase plasmid
T1 sequence (P30988 25-474): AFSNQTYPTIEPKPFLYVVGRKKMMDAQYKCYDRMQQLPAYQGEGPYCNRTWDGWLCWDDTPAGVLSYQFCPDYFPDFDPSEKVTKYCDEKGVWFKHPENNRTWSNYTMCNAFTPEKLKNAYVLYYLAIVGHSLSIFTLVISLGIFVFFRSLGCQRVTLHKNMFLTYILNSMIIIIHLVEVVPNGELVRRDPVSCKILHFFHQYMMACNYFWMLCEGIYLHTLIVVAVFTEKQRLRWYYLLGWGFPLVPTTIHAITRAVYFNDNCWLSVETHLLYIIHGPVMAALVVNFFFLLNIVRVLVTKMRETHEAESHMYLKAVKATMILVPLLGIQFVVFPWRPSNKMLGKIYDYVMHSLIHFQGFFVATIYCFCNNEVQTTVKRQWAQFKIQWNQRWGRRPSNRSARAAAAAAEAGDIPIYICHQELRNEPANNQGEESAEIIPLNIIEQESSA
T1 sequence (O60896 24-148 partner): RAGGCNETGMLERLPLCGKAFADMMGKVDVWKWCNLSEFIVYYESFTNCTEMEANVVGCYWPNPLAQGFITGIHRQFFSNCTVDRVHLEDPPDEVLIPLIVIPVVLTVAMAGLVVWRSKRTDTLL

[1] = Heat accelerated stability assay, 40° C., detection on 7 d and 28 d; type: physicochemical; conditions: for Purity from the reversed phase chromatography-214 nm, 0 d / Purity from the reversed phase chromatography-214 nm, 7 d / Purity from the reversed phase chromatography-214 nm, 28 d: 1 mg/mL, pH about 7.4, 40° C.; for Change (7 d − 0 d): purity on 7 d − purity on 0 d; for Change (7 d − 0 d) / Change (28 d − 0 d): 40° C., pH about 7.4; for Change (28 d − 0 d): purity on 28 d − purity on 0 d
Protocol: The derivatives (1 mg/mL) were mixed with sodium dihydrogen phosphate (1.42 mg/mL) and dissolved in ultrapure water. After adjusting pH to about 7.4 with hydrochloric acid/sodium hydroxide, the solution was filtered into a sterilized vial in a clean bench using a 0.22 μm sterile filter. The vial was then capped and placed into the stability test chamber at 40° C. Detections were made on Days 7 (7d) and 28 (28d), and during the assay, changes in the characteristics and properties of the polypeptides were observed and recorded. The sample was then centrifuged for 3 min at 10000 rpm at 4° C., and the supernatant was transferred to a liquid phase sample vial for detecting the concentration and purity of the polypeptides using liquid phase chromatography described as below.
Conditions of the reversed phase chromatography Flow rate: 1.0 mL/min; Autosampler temperature: 15° C.; Column temperature: 25° C.; Detection wavelength: 214 nm; Mobile phase A: 100% H2O+0.05% TFA; Mobile phase B: 100% ACN; and Gradient of elution listed in Table 4: […]

Row | Compound | Relative activity (human amylin receptors) [%] | EC50 (human amylin receptors) [nM] | Purity from the reversed phase chromatography-214 nm, 0 d [1] | Purity from the reversed phase chromatography-214 nm, 7 d [1] | Purity from the reversed phase chromatography-214 nm, 28 d [1] | Change (7 d − 0 d) [1] | Change (28 d − 0 d) [1]
1 | CC[C@H](C)[C@H](NC(=O)[C@@H]1CCCN1C(=O)[C@H](CCCCN)NC(=O)[C@H](CC(C)C)NC(=O)[C@H](CC(N)=O)NC(=O)[C@H](CC(N)=O)NC(=O)[C@H](CO)NC(=O)[C@H](CO)NC(=O)[C@H](Cc1c[nH]cn1)NC(=O)[C@H](CCCNC(=N)N)NC(=O)[C@H](CC(C)C)NC(=O)[C@H](Cc1ccccc1)NC(=O)[C@H](CC(=O)O)NC(=O)[C@H](C)NC(=O)[C@H](CC(C)C)NC(=O)[C@H](CCCNC(=N)N)NC(=O)[C@H](CCC(N)=O)NC(=O)[C@@H](NC(=O)[C@@H](NC(=O)[C@H](C)NC(=O)[C@@H](NC(=O)[C@H](CO)NC(=O)[C@H](CC(C)C)NC(=O)[C@H](CCC(N)=O)NC(=O)[C@H](CO)NC(=O)[C@H](C)NC(=O)CC[C@H](NC(=O)CCCCCCCCCCCCCCCCCCC(=O)O)C(=O)O)[C@@H](C)O)C(C)C)[C@@H](C)O)C(=O)N[C@@H](CC(C)C)C(=O)N1CCC[C@H]1C(=O)N1CCC[C@H]1C(=O)N[C@H](C(=O)N[C@@H](CC(N)=O)C(=O)N[C@H](C(=O)NCC(=O)N[C@@H](CO)C(=O)N[C@@H](CC(N)=O)C(=O)N[C@H](C(=O)N1C[C@H](O)C[C@H]1C(N)=O)[C@@H](C)O)C(C)C)[C@@H](C)O [M7] ({C20 diacid-γGlu}-ASQLSTAVTQRLADFLRHSSNNLKPILPPTNVGSNT[Hyp]-NH2) | 39 | 0.066 | 93 | 91.39 | 91.53 | −1.61 | −1.47
2 | CC[C@H](C)[C@H](NC(=O)[C@@H]1CCCN1C(=O)[C@H](CCCCN)NC(=O)[C@H](CC(C)C)NC(=O)[C@H](CC(N)=O)NC(=O)[C@H](CC(N)=O)NC(=O)[C@H](CO)NC(=O)[C@H](CO)NC(=O)[C@H](Cc1c[nH]cn1)NC(=O)[C@H](CCCNC(=N)N)NC(=O)[C@H](CC(C)C)NC(=O)[C@H](Cc1ccccc1)NC(=O)[C@H](CC(=O)O)NC(=O)[C@H](C)NC(=O)[C@H](CC(C)C)NC(=O)[C@H](CCCNC(=N)N)NC(=O)CNC(=O)[C@H](CC(C)C)NC(=O)[C@@H](NC(=O)[C@H](C)NC(=O)[C@@H](NC(=O)[C@H](CO)NC(=O)[C@H](CC(C)C)NC(=O)[C@H](CCC(N)=O)NC(=O)[C@H](CO)NC(=O)[C@H](C)NC(=O)CC[C@H](NC(=O)CCCCCCCCCCCCCCCCCCC(=O)O)C(=O)O)[C@@H](C)O)C(C)C)C(=O)N[C@@H](CC(C)C)C(=O)N1CCC[C@H]1C(=O)N1CCC[C@H]1C(=O)N[C@H](C(=O)N[C@@H](CC(N)=O)C(=O)N[C@H](C(=O)NCC(=O)N[C@@H](CO)C(=O)N[C@@H](CC(N)=O)C(=O)N[C@H](C(=O)N1C[C@H](O)C[C@H]1C(N)=O)[C@@H](C)O)C(C)C)[C@@H](C)O [M2] ({C20 diacid-γGlu}-ASQLSTAVLGRLADFLRHSSNNLKPILPPTNVGSNT[Hyp]-NH2) | 68 | 0.038 | 85.15 | 85.16 | 85.44 | 0.01 | 0.29
3 | CC[C@H](C)[C@H](NC(=O)[C@H](CC(=O)O)NC(=O)[C@H](CCCNC(=N)N)NC(=O)[C@H](CC(=O)O)NC(=O)[C@H](CCCNC(=N)N)NC(=O)[C@H](CC(=O)O)NC(=O)[C@@H](NC(=O)[C@H](Cc1ccccc1)NC(=O)[C@H](Cc1c[nH]cn1)NC(=O)[C@H](CCCNC(=N)N)NC(=O)[C@H](CC(C)C)NC(=O)[C@H](Cc1ccccc1)NC(=O)[C@H](CC(=O)O)NC(=O)[C@H](C)NC(=O)[C@H](CC(C)C)NC(=O)[C@H](CCCNC(=N)N)NC(=O)[C@H](CCC(N)=O)NC(=O)[C@@H](NC(=O)[C@@H](NC(=O)[C@H](C)NC(=O)[C@@H](NC(=O)[C@H](CO)NC(=O)[C@H](CC(C)C)NC(=O)[C@H](CCC(N)=O)NC(=O)[C@H](CO)NC(=O)[C@H](C)NC(=O)CC[C@H](NC(=O)CCCCCCCCCCCCCCCCCCC(=O)O)C(=O)O)[C@@H](C)O)C(C)C)[C@@H](C)O)[C@@H](C)O)C(=O)N[C@@H](CC(C)C)C(=O)N1CCC[C@H]1C(=O)N1CCC[C@H]1C(=O)N[C@H](C(=O)N[C@@H](CC(N)=O)C(=O)N[C@H](C(=O)NCC(=O)N[C@@H](CO)C(=O)N[C@@H](CC(N)=O)C(=O)N[C@H](C(=O)N1CCC[C@H]1C(N)=O)[C@@H](C)O)C(C)C)[C@@H](C)O [M8] ({C20 diacid-γGlu}-ASQLSTAVTQRLADFLRHFTDRDRDILPPTNVGSNTP-NH2) | 53 | 0.049 | 86.93 | 86.57 | 87.31 | −0.36 | 0.38
4 | CC[C@H](C)[C@H](NC(=O)[C@H](CC(=O)O)NC(=O)[C@H](CCCNC(=N)N)NC(=O)[C@H](CC(=O)O)NC(=O)[C@H](CCCNC(=N)N)NC(=O)[C@H](CC(=O)O)NC(=O)[C@@H](NC(=O)[C@H](Cc1ccccc1)NC(=O)[C@H](Cc1c[nH]cn1)NC(=O)[C@H](CCCNC(=N)N)NC(=O)[C@H](CC(C)C)NC(=O)[C@H](Cc1ccccc1)NC(=O)[C@H](CC(=O)O)NC(=O)[C@H](C)NC(=O)[C@H](CC(C)C)NC(=O)[C@H](CCCNC(=N)N)NC(=O)CNC(=O)[C@H](CC(C)C)NC(=O)[C@@H](NC(=O)[C@H](C)NC(=O)[C@@H](NC(=O)[C@H](CO)NC(=O)[C@H](CC(C)C)NC(=O)[C@H](CCC(N)=O)NC(=O)[C@H](CO)NC(=O)[C@H](C)NC(=O)CC[C@H](NC(=O)CCCCCCCCCCCCCCCCCCC(=O)O)C(=O)O)[C@@H](C)O)C(C)C)[C@@H](C)O)C(=O)N[C@@H](CC(C)C)C(=O)N1CCC[C@H]1C(=O)N1CCC[C@H]1C(=O)N[C@H](C(=O)N[C@@H](CC(N)=O)C(=O)N[C@H](C(=O)NCC(=O)N[C@@H](CO)C(=O)N[C@@H](CC(N)=O)C(=O)N[C@H](C(=O)N1CCC[C@H]1C(N)=O)[C@@H](C)O)C(C)C)[C@@H](C)O [M4] ({C20 diacid-γGlu}-ASQLSTAVLGRLADFLRHFTDRDRDILPPTNVGSNTP-NH2) | 32 | 0.081 | 95 | 94.22 | 92.25 | −0.78 | −2.75
